Measured values: the supplement of paper PMC8633005

Columns and labels:
Test in all cases: drug sensitivity score (DSS) (DSS (unitless, 0-50 scale)); higher = more sensitive (stronger viability inhibition); extreme values may be limits of the assay
Settings in all cases: 72 h; culture: 2D
SK-MEL-28 = test system: SK-MEL-28
Outline: (§1)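 A 527-compound oncology library was screened in 384-well plates against melanoma cell lines and patient-derived melanoma cultures grown in 2D, the cultures at 1000–1500 cells per well. Each compound, in DMSO or water, was applied at five concentrations over a 10,000-fold range and incubated for 72 h at 37 °C before CellTiter-Glo luminescence readout of viability. A drug sensitivity score, a modified area-under-curve measure, was calculated from curves fitted in the in-house Breeze software.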

FM-MEL-2 = test system: FM-MEL-2
Outline: as §1

WM165 = test system: WM165
Outline: as §1

WM852 = test system: WM852
Outline: as §1

SK-MEL-2 = test system: SK-MEL-2
Outline: as §1

FM-MEL-6 = test system: FM-MEL-6
Outline: as §1

Bowes = test system: Bowes
Outline: as §1

FM-MEL-3 = test system: FM-MEL-3
Outline: as §1

Structure (SMILES)	drug sensitivity score (SK-MEL-28)	drug sensitivity score (FM-MEL-2)	drug sensitivity score (WM165)	drug sensitivity score (WM852)	drug sensitivity score (SK-MEL-2)	drug sensitivity score (FM-MEL-6)	drug sensitivity score (Bowes)	drug sensitivity score (FM-MEL-3)
Cn1cncc1[C@@](N)(c1ccc(Cl)cc1)c1ccc2c(c1)c(-c1cccc(Cl)c1)cc(=O)n2C [Tipifarnib]	5	7.4	10.4	3.4	3.6	6.2	21.1	11.2
S=C(NCc1ccc2c(c1)OCO2)N1CCN(c2ncnc3c2oc2ccccc23)CC1 [Amuvatinib]	0	0	1.2	6.6	0	0	3.9	4.9
C=CC(=O)N1CCC(Oc2cc3c(Nc4ccc(Cl)c(Cl)c4F)ncnc3cc2OC)CC1 [Poziotinib]	0	0	0	0	0	0	2.2	0
O=C1CCC(N2C(=O)c3ccccc3C2=O)C(=O)N1 (stereo not given) [Thalidomide]	0	0	0	0	0	0	0	0
CNC(=O)c1ccc(N2C(=S)N(c3ccc(C#N)c(C(F)(F)F)c3)C(=O)C2(C)C)cc1F [Enzalutamide]	0	0.2	0	0.9	0	0	0.1	0.3
O=C(O)CCCCC(CCSCc1ccccc1)SCc1ccccc1 (stereo not given) [CPI-613]	0	0	0	0	0	0	0	0
CC(C)Cn1cnc2c(N)nc3ccccc3c21 [Imiquimod]	0	0	0	0.1	0	0	4.7	0
Cn1nccc1Nc1nccc(-c2ccn([C@H](CO)c3ccc(Cl)c(F)c3)c(=O)c2)n1 [Ravoxertinib]	13.1	11.9	12	1.9	5.2	5.6	1.7	12.4
CC[C@]1(O)C[C@H]2CN(CCc3c([nH]c4ccccc34)[C@@](C(=O)OC)(c3cc4c(cc3OC)N(C=O)[C@H]3[C@@](O)(C(=O)OC)[C@H](OC(C)=O)[C@]5(CC)C=CCN6CC[C@]43[C@@H]65)C2)C1 [Vincristine]	10.1	4.5	20.2	16.5	18.5	7.6	18.7	12.6
Cc1cc2c(C(=O)NC[C@H](C)c3ccccc3)c(O)c(O)cc2c(O)c1-c1c(C)cc2c(C(=O)NC[C@H](C)c3ccccc3)c(O)c(O)cc2c1O [Sabutoclax]	11.1	13	24.6	18	9.2	5.6	27.6	0.4
O=C(O)C1(C(=O)O)CCC1.[NH2-].[NH2-].[Pt+2] [Carboplatin]	3.2	0.9	10.2	0	2	7.8	0	2.8
O=C1c2c(O)ccc(O)c2C(=O)c2c(NCCNCCO)ccc(NCCNCCO)c21 [Mitoxantrone]	6.1	7.1	16.8	5.5	3.4	5.4	6.7	3.9
CC1(C)CCC(CN2CCN(c3ccc(C(=O)NS(=O)(=O)c4ccc(NCC5CCOCC5)c([N+](=O)[O-])c4)c(Oc4cnc5[nH]ccc5c4)c3)CC2)=C(c2ccc(Cl)cc2)C1 [Venetoclax]	0	0	0	0	0	0	0	3.6
COc1cc2nccc(Oc3ccc(NC(=O)NC4CC4)c(Cl)c3)c2cc1C(N)=O [Lenvatinib]	0	0	0	0	0	0	1.3	0
Nc1nc(Nc2ccc3c(c2)CC[C@@H](N2CCCC2)CC3)nn1-c1cc2c(nn1)-c1ccccc1CCC2 [BGB324]	6.7	2.6	5.7	6.9	5.6	5.4	3.2	5
CC#CC(=O)N1CC[C@@H](n2c(=O)n(-c3ccc(Oc4ccccc4)cc3)c3c(N)ncnc32)C1 [Tirabrutinib]	0	0	0	0	0	0	2	0
CN[C@@H](C)C(=O)N[C@H]1CN(C(=O)CC(C)C)CC[C@H]2CC[C@@H](C(=O)NC(c3ccccc3)c3ccccc3)N2C1=O [AT-406]	0	9.7	0	0	0.1	2.2	1.9	0
C#Cc1cccc(Nc2ncnc3cc(OCCOC)c(OCCOC)cc23)c1 [Erlotinib]	1.1	4.4	3.9	2.5	0	1.9	1.8	3.5
Cn1cc(-c2ccc(F)c(C(F)(F)F)c2)nc1C1CCN(c2ncnc3[nH]ncc23)CC1	0	0	0	0	0	0	0	0
CNC(=O)c1cccc2cc(Oc3ccnc4cc(OCC5(N)CC5)c(OC)cc34)ccc12 [Lucitanib]	0	0.3	1.6	2.2	0	1.3	5.4	0
